In assay [1] the target is T1, first (BD1: amino acids K57-E168) bromodomain of BRD4 (Homo sapiens, UniProt O60885).
T1 construct: His-tagged first (BD1: amino acids K57-E168)
Kind of assay: TR-FRET bromodomain binding assay, BRD4 BD1. The following applies: TR-FRET assay protocol (A-G, compound concentration range); Ki calculated from IC50, probe Kd and probe concentration; read-out: TR-FRET Binding Ki: BRD4 (BDI_K57-E168). The method in brief: (§1)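 His-tagged BRD4 bromodomain competed against an Alexa647-labeled BET-inhibitor probe by TR-FRET in 20 mM sodium phosphate pH 6.0, 50 mM NaCl, 1 mM EDTA, 0.01% Triton X-100, 1 mM DTT.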

Assay [2] deals with T2, second (BD2: amino acids E352-E168) bromodomain of BRD4 (Homo sapiens, UniProt O60885).
T2 construct: protocol
The experiment in a line: TR-FRET bromodomain binding assay, BRD4 BD2. The following applies: TR-FRET assay protocol (A-G, compound concentration range); Ki calculated from IC50, probe Kd and probe concentration; read-out: TR-FRET Binding Ki: BRD4 (BDII_E352-M457). Summed up: as §1

In general, Ki refers to the dissociation constant of the complex between target and ligand, obtained from inhibition or displacement.

As for `CN(C)C(=O)c1cc(-c2cc(=O)n(C)nc2-c2ccccc2Oc2ccccc2)ccc1F` [Example 155, 2-fluoro-N,N-dimethyl-5-[1-methyl-6-oxo-3-(2-phenoxyphenyl)-1,6-dihydropyridazin-4-yl]benzamide], the Ki in assay [1] was 5520 nM; in assay [2], 6900 nM.

Take `Cn1nc(-c2ccccc2Oc2ccccc2)c(-c2cccc(S(=O)(=O)N3CCCC3)c2)cc1=O` [Example 156, 2-methyl-6-(2-phenoxyphenyl)-5-[3-(pyrrolidin-1-ylsulfonyl)phenyl]pyridazin-3(2H)-one]: the inhibition constant Ki in assay [1] was more than 13000 nM; in assay [2], 13100 nM.

As to `Cn1nc(-c2ccccc2Oc2ccccc2)c(-c2cccc(C(=O)N3CCCCC3)c2)cc1=O` [Example 157, 2-methyl-6-(2-phenoxyphenyl)-5-[3-(piperidin-1-ylcarbonyl)phenyl]pyridazin-3(2H)-one], the results for the inhibition constant Ki in assay [1] and in assay [2] were 5510 nM and 4750 nM, respectively.

`CCN(CC)C(=O)c1ccc(-c2cc(=O)n(C)nc2-c2ccccc2Oc2ccccc2)cc1` [Example 158, N,N-diethyl-4-[1-methyl-6-oxo-3-(2-phenoxyphenyl)-1,6-dihydropyridazin-4-yl]benzamide]: the results for the inhibition constant Ki in assay [1] and in assay [2] were 604 nM and 529 nM, respectively.

For the molecule `CNS(=O)(=O)c1ccc(-c2cc(=O)n(C)nc2-c2ccccc2Oc2ccccc2)cc1` [Example 159, N-methyl-4-[1-methyl-6-oxo-3-(2-phenoxyphenyl)-1,6-dihydropyridazin-4-yl]benzenesulfonamide], the Ki is 5450 nM in assay [1] and 8420 nM in assay [2].

As for `CCN(CC)C(=O)c1cccc(-c2cc(=O)n(C)nc2-c2ccccc2Oc2ccccc2)c1` [Example 160, N,N-diethyl-3-[1-methyl-6-oxo-3-(2-phenoxyphenyl)-1,6-dihydropyridazin-4-yl]benzamide], the inhibition constant Ki in assay [1] is 8540 nM; in assay [2] it was 10200 nM.

Regarding `Cn1nc(-c2ccccc2Oc2ccccc2)c(-c2ccc(NCCN3CCOCC3)nc2)cc1=O` [Example 162, 2-methyl-5-(6-{[2-(morpholin-4-yl)ethyl]amino}pyridin-3-yl)-6-(2-phenoxyphenyl)pyridazin-3(2H)-one], the Ki in assay [1] was 109 nM; in assay [2] it was 75.1 nM.

On to `CN(C)CCCNC(=O)c1cccc(-c2cc(=O)n(C)nc2-c2ccccc2Oc2ccccc2)c1` [Example 163, N-[3-(dimethylamino)propyl]-3-[1-methyl-6-oxo-3-(2-phenoxyphenyl)-1,6-dihydropyridazin-4-yl]benzamide], for which the values for the inhibition constant Ki in assay [1] and in assay [2] were 1990 nM and 366 nM, respectively.

Consider `Cn1nc(-c2ccccc2Oc2ccccc2)c(-c2ccc(NCc3ccccc3)nc2)cc1=O` [Example 164, 5-[6-(benzylamino)pyridin-3-yl]-2-methyl-6-(2-phenoxyphenyl)pyridazin-3(2H)-one], for which the Ki was 1510 nM in assay [1] and 245 nM in assay [2].

Take `Cn1nc(-c2ccccc2Oc2ccccc2)c(-c2ccc(C(=O)NCCC#N)cc2)cc1=O` [Example 165, N-(2-cyanoethyl)-4-[1-methyl-6-oxo-3-(2-phenoxyphenyl)-1,6-dihydropyridazin-4-yl]benzamide]: the Ki in assay [1] is 567 nM; in assay [2], 492 nM.

Regarding `Cc1cc(-c2cc(=O)n(C)nc2-c2ccccc2Oc2ccccc2)cnc1N1CCOCC1` [Example 166, 2-methyl-5-[5-methyl-6-(morpholin-4-yl)pyridin-3-yl]-6-(2-phenoxyphenyl)pyridazin-3(2H)-one], the inhibition constant Ki in assay [1] was 705 nM; in assay [2], 1010 nM.

Take `CCN(CC)C(=O)c1cc(F)cc(-c2cc(=O)n(C)nc2-c2ccccc2Oc2ccccc2)c1` [Example 167, N,N-diethyl-3-fluoro-5-[1-methyl-6-oxo-3-(2-phenoxyphenyl)-1,6-dihydropyridazin-4-yl]benzamide]: the results for the Ki in assay [1] and in assay [2] were 5430 nM and 7370 nM, respectively.

Take `Cn1nc(-c2ccccc2Oc2ccccc2)c(-c2ccc(C(=O)NC(C)(C)C)cc2)cc1=O` [Example 168, N-tert-butyl-4-[1-methyl-6-oxo-3-(2-phenoxyphenyl)-1,6-dihydropyridazin-4-yl]benzamide]: the Ki was 1070 nM in assay [1] and 993 nM in assay [2].

Consider `Cn1nc(-c2ccccc2Oc2ccccc2)c(-c2ccc(C(=O)NC3CCCC3)cc2)cc1=O` [Example 169, N-cyclopentyl-4-[1-methyl-6-oxo-3-(2-phenoxyphenyl)-1,6-dihydropyridazin-4-yl]benzamide], for which the values for the inhibitory constant (Ki) in assay [1] and in assay [2] were 599 nM and 562 nM, respectively.

Consider `CC(C)CNC(=O)c1ccc(-c2cc(=O)n(C)nc2-c2ccccc2Oc2ccccc2)cc1` [Example 170, 4-[1-methyl-6-oxo-3-(2-phenoxyphenyl)-1,6-dihydropyridazin-4-yl]-N-(2-methylpropyl)benzamide], for which the results for the Ki in assay [1] and in assay [2] were 1670 nM and 1620 nM, respectively.

As to `COCCCNC(=O)c1ccc(-c2cc(=O)n(C)nc2-c2ccccc2Oc2ccccc2)cc1` [Example 171, N-(3-methoxypropyl)-4-[1-methyl-6-oxo-3-(2-phenoxyphenyl)-1,6-dihydropyridazin-4-yl]benzamide], the Ki in assay [1] was 253 nM; in assay [2] it was 215 nM.

Consider `Cn1nc(-c2ccccc2Oc2ccccc2)c(-c2cnn(CCN3CCOCC3)c2)cc1=O` [Example 172, 2-methyl-5-{1-[2-(morpholin-4-yl)ethyl]-1H-pyrazol-4-yl}-6-(2-phenoxyphenyl)pyridazin-3(2H)-one], for which the Ki is 572 nM in assay [1] and 593 nM in assay [2].

`COCCNC(=O)c1ccc(-c2cc(=O)n(C)nc2-c2ccccc2Oc2ccccc2)cc1` [Example 173, N-(2-methoxyethyl)-4-[1-methyl-6-oxo-3-(2-phenoxyphenyl)-1,6-dihydropyridazin-4-yl]benzamide]: the Ki in assay [1] was 805 nM; in assay [2], 545 nM.

Turning to `CN1CCN(c2cc(-c3cc(=O)n(C)nc3-c3ccccc3Oc3ccccc3)ccn2)CC1` [Example 174, 2-methyl-5-[2-(4-methylpiperazin-1-yl)pyridin-4-yl]-6-(2-phenoxyphenyl)pyridazin-3(2H)-one], the Ki in assay [1] was 854 nM; in assay [2] it was 764 nM.

Regarding `Cn1nc(-c2ccccc2Oc2ccccc2)c(-c2cccc(C(=O)N3CCOCC3)c2)cc1=O` [Example 175, 2-methyl-5-[3-(morpholin-4-ylcarbonyl)phenyl]-6-(2-phenoxyphenyl)pyridazin-3(2H)-one], the Ki in assay [1] is 2950 nM; in assay [2], 2490 nM.

For the molecule `Cc1nnc(-c2cccc(-c3cc(=O)n(C)nc3-c3ccccc3Oc3ccccc3)c2)o1` [Example 176, 2-methyl-5-[3-(5-methyl-1,3,4-oxadiazol-2-yl)phenyl]-6-(2-phenoxyphenyl)pyridazin-3(2H)-one], the inhibition constant Ki is 3660 nM in assay [1] and 2080 nM in assay [2].

As to `Cn1nc(-c2ccccc2Oc2ccccc2)c(-c2cccc(C(=O)NC3CC3)c2)cc1=O` [Example 177, N-cyclopropyl-3-[1-methyl-6-oxo-3-(2-phenoxyphenyl)-1,6-dihydropyridazin-4-yl]benzamide], the inhibition constant Ki is 4170 nM in assay [1] and 1070 nM in assay [2].

Turning to `Cn1nc(-c2ccccc2Oc2ccccc2)c(-c2ccc(S(=O)(=O)N3CCCC3)cc2)cc1=O` [Example 178, 2-methyl-6-(2-phenoxyphenyl)-5-[4-(pyrrolidin-1-ylsulfonyl)phenyl]pyridazin-3(2H)-one], the Ki in assay [1] was 3340 nM; in assay [2] it was 4540 nM.

Values taken from patent publication US9561231B2 (AbbVie Inc., priority 2012, dated 2017).
